Measurements reported in patent US20020035097A1, “Method of preventing and treating chemotherapy-induced alopecia” (priority 1991, published 2002).
Values joined by “and” are separate entries in the source; they are usually repeats but may differ in a detail not shown here. Equal values may be shown once. “Also recorded” adds a separate entry of the source.

Experiments:
[1] = tested on: hair growth; test: Stimulation of hair regrowth on shaven backs of rats; type: in vivo, rat; settings: noted in rats during the chemotherapy-induced alopecia studies
[2] = tested on: EGF receptors on breast cancer cells; settings: literature; cited from earlier work
[3] = tested on: hair growth; test: Stimulation of hair regrowth on shaven backs of rats; type: in vivo, rat
Description: The backs of nineteen 25 day old Sprague Dawley rats were shaven and randomized in two groups.
Group I (control 10 rats) received 0.1 ml of ethanol applied topically once daily to the shaven area for 14 days.
Group II (Calcitriol 9 rats) received 50 ng of 1,25-dihydroxyvitamin D3 in 0.1 ml of ethanol applied topically once daily to the shaven area for 14 days.
On day 15 stimulation of hair regrowth was assessed by reshaving an area 6 cm×6 cm in diameter. The hair was collected and weighed. The difference between two groups was highly statistically significant. P. value 0.003 (see Table III and FIG. 11).

[4] = tested on: Cytoxan-induced alopecia; test: Cytoxan-induced alopecia in young rats; type: in vivo, rat; settings: 0.2 μg in 0.15 ml absolute ethanol topically over head and neck, pretreatment; CTX 35 mg/kg one day
[5] = tested on: EGF receptors on a cell line established from rat calvaria; settings: literature; cited from earlier work
[6] = tested on: Cytoxan/Adriamycin-induced alopecia; test: Cytoxan/Adriamycin combination-induced alopecia in young rats; type: in vivo, rat; settings: 0.2 μg in 0.15 ml absolute ethanol topically over head and neck, pretreatment; 11 rats per group
Description: Eight 4-day old Sprague Dawley rats were randomized in two groups of 4 rats each. Group I, received EGF […] s.c. on the head daily for 7 days. Group II received buffer injections and served as controls. One day after stopping EGF or buffer injections all rats received Cytoxan 25 mg/kg i.p.×1 day and Adriamycin 2.5 mg/kg i.p.×3 days. […] (FIG. 5).
(§1) 1,25-Dihydroxyvitamin D3 was dissolved in absolute ethanol and applied topically with an applicator. Control animals were similarly treated with the same amount of ethanol. Animals were then kept individually separated for a period of three hours following which the treated area was carefully washed with soap and water and dried. Treatment was given daily beginning on day 5 after birth and ending on day 10.
All chemotherapies were given I.P. and started at 11 days of age. CTX, 35 mg/kg, was given for one day only. VP-16, 1.5 mg/kg, was given for three days. For CTX and ADM combination, CTX, 25 mg/kg was given for one day and ADM, 2.5 mg/kg, for three days. […] Alopecia was recorded on the tenth day from beginning chemotherapy.
A total of 4 experiments were carried out. In the first experiment, protection from Cytoxan-induced alopecia was examined. The experimental group was pretreated with 0.2 μg of 1,25-dihydroxyvitamin D3 in 0.15 ml of absolute ethanol applied topically over the head and neck and the control group received 0.15 ml of alcohol. […] The second experiment was carried out under similar conditions to examine protection from VP-16-induced alopecia. […] The third experiment was designed to examine protection from alopecia induced by Cytoxan-Adriamycin combination. There were 11 rats in each group. […] In the fourth experiment, protection from VP-16-induced alopecia was similarly examined except that the dose of 1,25-dihydroxyvitamin D3 was reduced to 0.1 μg in 0.1 ml absolute ethanol applied topically over the head area only.

[7] = tested on: VP-16-induced alopecia; test: VP-16 (Etoposide)-induced alopecia in young rats; type: in vivo, rat
Description: Twelve 7 day old rats were randomized in two groups. Group I was treated daily with buffer 0.1 ml s.c. for four days. The second Group was treated daily with Vitamin D3 50 μg s.c. over head for four days. After stopping the buffer or Vitamin D3 treatment, all rats received 1.5 mg/kg i.p. of VP-16 (Etoposide) daily for three days.
as §1
All chemotherapies were given I.P. and started at 11 days of age. CTX, 35 mg/kg, was given for one day only. VP-16, 1.5 mg/kg, was given for three days. For CTX and ADM combination, CTX, 25 mg/kg was given for one day and ADM, 2.5 mg/kg, for three days. At these doses neither CTX nor ADM alone will produce alopecia. Alopecia was recorded on the tenth day from beginning chemotherapy.
A total of 4 experiments were carried out. In the first experiment, protection from Cytoxan-induced alopecia was examined. The experimental group was pretreated with 0.2 μg of 1,25-dihydroxyvitamin D3 in 0.15 ml of absolute ethanol applied topically over the head and neck and the control group received 0.15 ml of alcohol. All 10 rats in the control group became totally alopecic. […] The second experiment was carried out under similar conditions to examine protection from VP-16-induced alopecia. All 10 rats in the control group developed total body alopecia. […] The third experiment was designed to examine protection from alopecia induced by Cytoxan-Adriamycin combination. There were 11 rats in each group. Six rats in the control group developed alopecia over the head and neck and 5 rats developed total body alopecia. […] In the fourth experiment, protection from VP-16-induced alopecia was similarly examined except that the dose of 1,25-dihydroxyvitamin D3 was reduced to 0.1 μg in 0.1 ml absolute ethanol applied topically over the head area only. All 10 rats in the control group became completely alopecic.
as §1, with “RO 23-7553 (1,25 dihydroxy-16-ene-23-yne-cholecalciferol)” for “1,25-Dihydroxyvitamin D3”, “9” for “5”, “14.” for “10.”
On day 15 all animals received VP-16, 1.5 mg/kg i.p., for three days. Alopecia was recorded on day 25.
Thirteen rats were randomized in two groups. Experimental group, 7 rats; control group, 6 rats. The experimental group was pretreated with 1 μg of RO 23-7553 in 0.2 ml absolute ethanol applied topically over the neck and back and the control group received 0.2 ml of absolute ethanol. All six rats in the control group became totally alopecic over the neck and back.

C=C1/C(=C\C=C2/CCC[C@]3(C)[C@@H]([C@H](C)CCCC(C)(C)O)CC[C@@H]23)C[C@@H](O)C[C@@H]1O [1,25-dihydroxyvitamin D3]
Coat and hair in the treated area [1]: better coat of hair and longer hair in the treated area
Effect on EGF receptors [2]: increase EGF receptors
Hair Weight, Mean S.E.M. ([3]; 50 ng in 0.1 ml ethanol topically once daily for 14 days, 9 rats, day 15, P value 0.003 vs control): 164 ± 13 Mg
Hair Weight (individual rats) ([3]; 50 ng in 0.1 ml ethanol topically once daily to shaven area for 14 days, 6 cm×6 cm area reshaved on day 15, listed as Calcitriol): 130 Mg and 177 Mg and 140 Mg and 147 Mg and 135 Mg and 202 Mg and 143 Mg and 150 Mg and 253 Mg
Effect on hair growth ([3]; administered topically in the rat): stimulation of hair growth
Protection from Cytoxan-induced alopecia [4]: all animals in the experimental group were protected
Effect on EGF receptors [5]: increase EGF receptors
Protection from alopecia induced by Cytoxan-Adriamycin combination [6]: all rats in the experimental group were protected
Protection from VP-16-induced alopecia ([7]; 0.1 μg in 0.1 ml absolute ethanol topically over the head area only, pretreatment, VP-16 1.5 mg/kg for three days): protected primarily at the site of 1,25-dihydroxyvitamin D3 application; also recorded: less generalized and was more limited to the site of application
Protection from VP-16-induced alopecia ([7]; 0.2 μg in 0.15 ml absolute ethanol topically over head and neck, pretreatment, VP-16 1.5 mg/kg for three days): all rats in the experimental group were protected
Extent of protection ([7]; 0.2 μg topically over head and neck, stated for the CTX, VP-16 and CTX+ADM experiments together): not limited to the site of application but involved the entire body
Protection from VP-16-induced alopecia ([7]; applied topically 0.5 μg daily in 50% ethanol or DMSO): protected
